Experiments:
[1] = tested on: caspase-3 activity in OV-1063 tumor cells; assay: EnzChek Caspase-3 assay; assay type: cell-based, human; settings: 16 hr, IC50 values
Text: Biochemically, apoptosis was verified by the EnzChek™ Caspase-3 Assay Kit (Molecular Probes). This allows the detection of apoptosis by assaying for increases in caspase-3 and other DEVD-specific protease activities (e.g., caspase-7). The basis for the assay is rhodamine 110 bis-(N-CBZ-aspartyl-L-glutamyl-L-valyl-aspartic acid amide) referred to as Z-DEVD-R110. This substrate is a bisamide derivative of rhodamine 110 (R110) containing DEVD peptides covalently linked to each of R110's amino groups. Upon enzymatic cleavage, the nonfluorescent bisamide substrate is converted to the fluorescent R110, which was quantified by a fluorescence microplate reader (Tecan) using excitation at 485±10 nm and emission at 535±10 nm. […] The AC-DEVD-inhibitor was used to confirm that the observed fluorescence signal in treated samples is due to the activity of caspase-3 protease. Both induced and control cells were then harvested and lysed. Enzyme reactions were performed in 96-well plates with 50 μg of cytosolic proteins (55 min. of incubation) and a final concentration of 25 μM Z-DEVD-R110 substrate, as described in the kit protocol.

[2] = Critical aggregation concentration (CAC) by surface tension; assay type: physicochemical; settings: pure water containing 0.3% ethanol, room temperature
Procedure: The critical aggregation concentration (CAC) of the ceramides is the concentration at which aggregation of monomers to an amphiphile assembly occurs. CAC of the C2, C6, and C16 ceramides was determined in filtered pure water containing 0.3% ethanol by measuring at room temperature surface tension as a function of ceramide concentration. The measurements were done using μThrougs Kibron System (Helsinki, Finland) which determine the surface tension at the air/water interface. The measurement at each concentration was repeated until a constant value of surface tension was reached [Zuidam, N. and Barenholz, Y., Supra (1997)]

CCCCCCCCCCCCC/C=C/[C@@H](O)[C@H](CO)NC(=O)CCCCCCCCCCCCCCC [C16Cer, N-palmitoyl-D-erythro-sphingosine]
increase in caspase-3 activity vs control, untreated cells [1]: no activation

CCCCCCCCCCCCC/C=C/[C@@H](O)[C@H](CO)NC(C)=O [C2Cer, N-Acetyl-D-erythro-sphingosine]
CAC (critical aggregation concentration) [2]: 10^−6M
